# Where a name gives a salt, the structure may show the parent alone.
# Tested on: DGAT
# Experiment: DGAT Phospholipid FlashPlate Assay
# Type: biochemical
# Conditions: DGAT pellet, DAG-coated PL-FlashPlate, 14C-Pal-CoA, 37° C. for 1 hour; read-out: DGAT Inhibition Activity IC50
# Protocol: DGAT Phospholipid FlashPlate Assay
# Materials for the assay were: PL-FlashPlate: Phospholipid FlashPlates from PerkinElmer, catalog number SMP108; DAG (1,2-Dioleoyl-sn-glycerol) 10 mM suspended in water containing 0.1% Triton X-100; ^14C-Pal-CoA (palmitoyl coenzyme A, [palmitoyl-1-^14C]) from PerkinElmer, catalog number NEC-555 with a specific activity of 55 mCi/mmol; and DGAT pellet, with a protein concentration of 9.85 mg/ml.
# Aqueous buffers were prepared or purchased as follows: The coating buffer (CB) was purchased from PerkinElmer, catalog number SMP900A; the reaction buffer (RB) was 50 mM Tris-HCl, pH 7.5, 100 mM NaCl, 0.01% BSA in water; the washing buffer (WB) is 50 mM Tris-HCl, pH 7.5, 100 mM NaCl, 0.05% deoxycholic acid sodium salt in water; the dilution buffer (DB) was 50 mM Tris-HCl, pH 7.5, 100 mM NaCl, 1 mM EDTA, 0.2% Triton X-100 in water.
# 1,2-Dioleoyl-sn-glycerol (DAG, 10 mmoles) was diluted to 500 μM with coating buffer (CB). The diluted DAG solution was then added to 384-well PL-FlashPlates at 60 μl per well, and incubated at room temperature for 2 days. The coated plates were then washed twice with washing buffer (WB) before use. Test compounds were serial diluted to 2000, 666.7, 222.2, 74.1, 24.7, 8.2, 2.7 and 0.9 μM in 100% DMSO. Diluted compound were further diluted 10 fold with reaction buffer (RB). ^14C-Pal-CoA was diluted to 8.3 μM with RB. The DGAT pellet was diluted to 0.13 mg protein/ml with dilution buffer (DB) immediately before it was added to the PL-FlashPlates to start the reaction. 20 μl of the RB-diluted compounds (or 10% DMSO in RB for Total and Blank), 15 μl of RB diluted 14C-Pal-CoA and 15 μl of DB diluted DGAT pellet (DB without DGAT for Blanks) were transferred to each well of the PL-FlashPlates. The reaction mixtures were incubated at 37° C. for 1 hour. The reactions were stopped by washing 3 times with WB. Plates were sealed with Top-seal and read on a Topcount instrument.
# Calculation of IC50: The IC50 values for each compound were generated using an Excel template. The Topcount rpm readings of Total and Blank were used as 0% and 100% inhibition. The percent inhibition values of reactions in the presence of compounds were calculated, and plotted against compound concentrations. All data were fitted into a Dose Response One Site model (4 parameter logistic model) as the following: (A+((B−A)/(1+((x/C)^D)))), with A and B as the bottom and top of the curve (highest and lowest inhibition), respectively, and C as IC50 and D as Hill Coefficient of the compound.
row,SMILES,IC50 [µM]
1,"CCn1c(C(=O)Nc2ccc(N(C)CCOC)nc2)cc2ccccc21 [Example 37, 1-Ethyl-1H-indole-2-carboxylic acid {6-[(2-methoxy-ethyl)-methyl-amino]-pyridin-3-yl}-amide hydrochloride]",0.425
2,"CCn1c(C(=O)Nc2ccc(N(C)CCOC)nc2)cc2c(OC)cccc21 [Example 38, 1-Ethyl-4-methoxy-1H-indole-2-carboxylic acid {6-[(2-methoxy-ethyl)-methyl-amino]-pyridin-3-yl}-amide hydrochloride]",0.102
3,"CCn1c(C(=O)Nc2ccc(N(C)CCOC)nc2)cc2cc(OC)ccc21 [Example 39, 1-Ethyl-5-methoxy-1H-indole-2-carboxylic acid {6-[(2-methoxy-ethyl)-methyl-amino]pyridin-3-yl}-amide hydrochloride]",0.312
4,"CCn1c(C(=O)Nc2ccc(N(C)CCOC)nc2)cc2cc(OCc3ccccc3)ccc21 [Example 40, 5-Benzyloxy-1-ethyl-1H-indole-2-carboxylic acid {6-[(2-methoxy-ethyl)-methyl-amino]-pyridin-3-yl}-amide]",0.797
5,"CCCn1c(C(=O)Nc2ccc(N(C)CCOC)nc2)cc2ccccc21 [Example 41, 1-Propyl-1H-indole-2-carboxylic acid {6-[(2-methoxy-ethyl)-methyl-amino]-pyridin-3-yl}-amide hydrochloride]",0.937
6,"COCCN(C)c1ccc(NC(=O)c2cc3cc(Cl)ccc3n2C)cn1 [Example 42, 5-Chloro-1-methyl-1H-indole-2-carboxylic acid {6-[(2-methoxy-ethyl)-methyl-amino]-pyridin-3-yl}-amide hydrochloride]",0.75
7,"CCn1c(C(=O)Nc2ccc(N(C)CCOC)nc2)cc2cc(Cl)ccc21 [Example 43, 5-Chloro-1-ethyl-4H-indole-2-carboxylic acid {6-[(2-methoxy-ethyl)-methyl-amino]-pyridin-3-yl}-amide hydrochloride]",0.161
8,"CCOc1cccc2c1cc(C(=O)Nc1ccc(N3CCN(C(=O)CC(C)(C)C(=O)O)CC3)cc1)n2CC [Example 44, 4-(4-{4-[(4-Ethoxy-1-ethyl-1H-indole-2-carbonyl)-amino]-phenyl}-piperazin-1-yl)-2,2-dimethyl-4-oxo-butyric acid]",0.489
9,"CCn1c(C(=O)Nc2ccc(N(C)C3CC3)nc2)cc2cc(Cl)ccc21 [Example 45, 5-Chloro-1-ethyl-1H-indole-2-carboxylic acid [6-(cyclopropyl-methyl-amino)-pyridin-3-yl]-amide]",0.668
10,"CCOC(=O)N1CC[C@H](Nc2ccc(NC(=O)c3cc4cc(Br)ccc4s3)cn2)C1 [Example 46, (S)-3-{5-[(5-Bromo-benzo[b]thiophene-2-carbonyl)-amino]pyridin-2-ylamino}-pyrrolidine-1-carboxylic acid ethyl ester hydrochloride]",0.303
11,"CCOC(=O)N1CC[C@H](Nc2ccc(NC(=O)c3cc4c(Cl)cccc4s3)cn2)C1 [Example 47, (S)-3-{5-[(4-Chloro-benzo[b]thiophene-2-carbonyl)-amino]pyridin-2-ylamino}-pyrrolidine-1-carboxylic acid ethyl ester hydrochloride]",0.28

# The remaining lines, values ahead:
row,IC50 [µM],SMILES
1,0.396,"CCOC(=O)N1CC[C@H](Nc2ccc(NC(=O)c3cc4ccccc4s3)cn2)C1 [Example 48, (S)-3-{5-[(Benzo[b]thiophene-2-carbonyl)-amino]-pyridin-2-ylamino}-pyrrolidine-1-carboxylic acid ethyl ester hydrochloride]"
2,0.594,"CCOC(=O)N1CC[C@H](Nc2ccc(NC(=O)c3cc4cc(C(F)(F)F)ccc4s3)cn2)C1 [Example 49, (S)-3-{5-[(5-Trifluoromethyl-benzo[b]thiophene-2-carbonyl)-amino]-pyridin-2 ylamino}-pyrrolidine-1-carboxylic acid ethyl ester hydrochloride]"
3,0.929,"CCOC(=O)N1CC[C@H](Nc2ccc(NC(=O)c3cc4cc(Br)ccc4n3CC)cn2)C1 [Example 50, (S)-3-{5-[(5-Bromo-1-ethyl-1H-indole-2-carbonyl)-amino]-pyridin-2-ylamino}-pyrrolidine-1-carboxylic acid ethyl ester hydrochloride]"
4,0.343,"CCOC(=O)N1CC[C@H](Nc2ccc(NC(=O)c3cc4cc(OC)ccc4n3CC)cn2)C1 [Example 51, (S)-3-{5-[(1-Ethyl-5-methoxy-1H-indole-2-carbonyl)-amino]-pyridin-2-ylamino}-pyrrolidine-1-carboxylic acid ethyl ester hydrochloride]"
5,0.229,"CCOC(=O)N1CC[C@H](Nc2ccc(NC(=O)c3cc4c(OC)cc(OC)cc4n3CC)cn2)C1 [Example 52, (S)-3-{5-[(1-Ethyl-4,6-dimethoxy-1H-indole-2-carbonyl)-amino]-pyridin-2-ylamino}pyrrolidine-1-carboxylic acid ethyl ester]"
6,0.209,"CCOC(=O)N1CC[C@H](Nc2ccc(NC(=O)c3cc4c(C)cccc4n3CC)cn2)C1 [Example 53, (S)-3-{5-[(1-Ethyl-4-methyl-1H-indole-2-carbonyl)-amino]-pyridin-2-ylamino}-pyrrolidine-1-carboxylic acid ethyl ester hydrochloride]"
7,0.309,"CCOC(=O)N1CC[C@H](Nc2ccc(NC(=O)c3cc4c(OC)c(OC)ccc4n3CC)cn2)C1 [Example 54, (S)-3-{5-[(1-Ethyl-4,5-dimethoxy-1H-indole-2-carbonyl)-amino]-pyridin-2-ylamino}pyrrolidine-1-carboxylic acid ethyl ester hydrochloride]"
8,0.414,"CCOC(=O)N1CC[C@H](Nc2ccc(NC(=O)c3cc4c(OCC)cccc4n3CC)cn2)C1 [Example 55, (S)-3-{5-[(4-Ethoxy-1-ethyl-1H-indole-2-carbonyl)-amino]-pyridin-2-ylamino}-pyrrolidine-1-carboxylic acid ethyl ester hydrochloride]"
9,0.671,"CCOC(=O)N1CC[C@H](Nc2ccc(NC(=O)c3cc4cc(Cl)ccc4n3CC)cn2)C1 [Example 56, (S)-3-{5-[(5-Chloro-1-ethyl-1H-indole-2-carbonyl)-amino]-pyridin-2-ylamino}-pyrrolidine-1-carboxylic acid ethyl ester]"
10,0.548,"CCOC(=O)N1CC[C@H](Nc2ccc(NC(=O)c3cc4c(Cl)c(Cl)ccc4n3CC)cn2)C1 [Example 57, (S)-3-{5-[(4,5-Dichloro-1-ethyl-1H-indole-2-carbonyl)-amino]-pyridin-2-ylamino}-pyrrolidine-1-carboxylic acid ethyl ester hydrochloride]"
11,0.247,"CCn1c(C(=O)Nc2ccc(N[C@H]3CCN(C(=O)NC(C)(C)C)C3)nc2)cc2c(C)cccc21 [Example 58, 1-Ethyl-4-methyl-1H-indole-2-carboxylic acid [6-((8)-1-tert-butylcarbamoyl-pyrrolidin-3-ylamino)-pyridin-3-yl]-amide hydrochloride]"
12,0.821,"CCn1c(C(=O)Nc2ccc(N3CCN(C(=O)OC(C)(C)C)CC3)cc2)cc2c(Cl)c(Cl)ccc21 [Example 59, 4-{4-[(4,5-Dichloro-1-ethyl-1H-indole-2-carbonyl)-amino]-phenyl}-piperazine-1-carboxylic acid tert-butyl ester]"

# Source: patent US8124766B2, “Inhibitors of diacylglycerol acyltransferase” (Madrigal Pharmaceuticals, Inc., priority 2008, dated 2012)
